Experimental data as given in patent US6855710B2, “Substituted indolines with an inhibitory effect on various kinases and complexes of CDKs” (Boehringer Ingelheim Pharma KG, priority 1998, dated 2005).

melting point | SMILES
255 to 257 °C | CS(=O)(=O)N(CCN1CCOCC1)c1ccc(N/C(=C2\C(=O)Nc3ccc([N+](=O)[O-])cc32)c2ccccc2)cc1 [Example 203, (Z)-3-{1-[4-(N-(2-morpholinoethyl)-N-methylsulphonyl-amino)-phenylamino]-1-phenyl-methylidene}-5-nitro-2-indolinone]
255 to 258 °C | CN(C)C(=O)CN(c1ccc(N/C(=C2\C(=O)Nc3ccccc32)c2ccccc2)cc1)S(=O)(=O)c1ccccc1 [Example 205, (Z)-3-{1-[4-(N-dimethylaminocarbonylmethyl-N-phenylsulphonyl-amino)-phenylamino]-1-phenyl-methylidene}-2-indolinone]
223 to 226 °C | Cc1ccc(S(=O)(=O)N(CC(=O)N(C)C)c2ccc(N/C(=C3\C(=O)Nc4ccccc43)c3ccccc3)cc2)cc1 [Example 206, (Z)-3-{1-[4-(N-dimethylaminocarbonylmethyl-N-(p-tolylsulphonyl)-amino)-phenylamino]-1-phenyl-methylidene}-2-indolinone]
160 to 162 °C | CN(C)C(=O)CN(c1ccc(N/C(=C2\C(=O)Nc3ccc([N+](=O)[O-])cc32)c2ccccc2)cc1)S(=O)(=O)c1ccccc1 [Example 209, (Z)-3-{1-[4-(N-dimethylaminocarbonylmethyl-N-phenylsulphonyl-amino)-phenylamino]-1-phenyl-methylidene}-5-nitro-2-indolinone]
198 to 200 °C | Cc1ccc(S(=O)(=O)N(CC(=O)N(C)C)c2ccc(N/C(=C3\C(=O)Nc4ccc([N+](=O)[O-])cc43)c3ccccc3)cc2)cc1 [Example 210, (Z)-3-{1-[4-(N-dimethylaminocarbonylmethyl-N-(p-tolylsulphonyl)-amino)-phenylamino]-1-phenyl-methylidene}-5-nitro-2-indolinone]
208 to 209 °C | Cc1ccc(/C(Nc2ccc(CN(C)C)cc2)=C2/C(=O)Nc3ccccc32)cc1 [Example 211, (Z)-3-[1-(4-dimethylaminomethyl-phenylamino)-1-(p-tolyl)-methylidene]-2-indolinone]
224 to 226 °C | Cc1cccc(/C(Nc2ccc(CN(C)C)cc2)=C2/C(=O)Nc3ccccc32)c1 [Example 213, (Z)-3-[1-(4-dimethylaminomethyl-phenylamino)-1-(m-tolyl)-methylidene]-2-indolinone]
206 to 207 °C | COc1ccc(/C(Nc2ccc(CN(C)C)cc2)=C2/C(=O)Nc3ccccc32)cc1 [Example 215, (Z)-3-[1-(4-dimethylaminomethyl-phenylamino)-1-(4-methoxyphenyl)-methylidene]-2-indolinone]
259 to 262 °C | COc1ccc(/C(Nc2ccc(CN(C)C)cc2)=C2/C(=O)Nc3ccc([N+](=O)[O-])cc32)cc1 [Example 216, (Z)-3-[1-(4-dimethylaminomethyl-phenylamino)-1-(4-methoxyphenyl)-methylidene]-5-nitro-2-indolinone]
206 to 208 °C | COc1cccc(/C(Nc2ccc(CN(C)C)cc2)=C2/C(=O)Nc3ccc([N+](=O)[O-])cc32)c1 [Example 218, (Z)-3-[1-(4-dimethylaminomethyl-phenylamino)-1-(3-methoxyphenyl)-methylidene]-5-nitro-2-indolinone]
213 °C | CN(C)Cc1ccc(N/C(=C2\C(=O)Nc3ccccc32)c2ccc(Cl)cc2)cc1 [Example 221, (Z)-3-[1-(4-dimethylaminomethyl-phenylamino)-1-(4-chlorophenyl)-methylidene]-2-indolinone]
311 °C | CN(C)Cc1ccc(N/C(=C2\C(=O)Nc3ccc([N+](=O)[O-])cc32)c2ccc(Cl)cc2)cc1 [Example 222, (Z)-3-[1-(4-dimethylaminomethyl-phenylamino)-1-(4-chlorophenyl)-methylidene]-5-nitro-2-indolinone]
197 to 198 °C | CN(C)Cc1ccc(N/C(=C2\C(=O)Nc3ccccc32)c2cccc(Cl)c2)cc1 [Example 223, (Z)-3-[1-(4-dimethylaminomethyl-phenylamino)-1-(3-chlorophenyl)-methylidene]-2-indolinone]

The next lines start with the molecule.

SMILES | melting point
CN(c1ccc(N/C(=C2\C(=O)Nc3ccc([N+](=O)[O-])cc32)c2ccccc2)cc1)S(C)(=O)=O [Example 197, (Z)-3-{1-[4-(N-methyl-N-methylsulphonyl-amino)-phenylamino]-1-phenyl-methylidene}-5-nitro-2-indolinone] | 306 to 308 °C
CCOC(=O)CN(c1ccc(N/C(=C2\C(=O)Nc3ccc([N+](=O)[O-])cc32)c2ccccc2)cc1)S(C)(=O)=O [Example 198, (Z)-3-{-[4-(N-ethoxycarbonylmethyl-N-methylsulphonyl-amino)-phenylamino]-1-phenyl-methylidene}-5-nitro-2-indolinone] | 236 to 238 °C
CS(=O)(=O)N(CC(=O)O)c1ccc(N/C(=C2\C(=O)Nc3ccc([N+](=O)[O-])cc32)c2ccccc2)cc1 [Example 199, (Z)-3-{1-[4-(N-carboxymethyl-N-methylsulphonyl-amino)-phenyl-amino]-1-phenyl-methylidene}-5-nitro-2-indolinone] | 180 to 183 °C
CN(C)C(=O)CN(c1ccc(N/C(=C2\C(=O)Nc3ccc([N+](=O)[O-])cc32)c2ccccc2)cc1)S(C)(=O)=O [Example 201, (Z)-3-{1-[4-(N-dimethylaminocarbonylmethyl-N-methylsulphonyl-amino)-phenylamino]-1-phenyl-methylidene}-5-nitro-2-indolinone] | 277 to 280 °C
CN(C)CCN(c1ccc(N/C(=C2\C(=O)Nc3ccc([N+](=O)[O-])cc32)c2ccccc2)cc1)S(C)(=O)=O [Example 202, (Z)-3-{1-[4-(N-(2-dimethylamino-ethyl)-N-methylsulphonyl-amino)-phenylamino]-1-phenyl-methylidene}-5-nitro-2-indolinone] | 276 to 277 °C
CN(C)C(=O)CN(c1ccc(N/C(=C2\C(=O)Nc3ccccc32)c2ccccc2)cc1)S(=O)(=O)Cc1ccccc1 [Example 207, (Z)-3-{1-[4-(N-dimethylaminocarbonylmethyl-N-benzylsulphonyl-amino)-phenylamino]-1-phenyl-methylidene}-2-indolinone] | 133 to 135 °C
Cc1ccc(/C(Nc2ccc(CN(C)C)cc2)=C2/C(=O)Nc3ccc([N+](=O)[O-])cc32)cc1 [Example 212, (Z)-3-[1-(4-dimethylaminomethyl-phenylamino)-1-(p-tolyl)-methylidene]-5-nitro-2-indolinone] | 274 to 276 °C
Cc1cccc(/C(Nc2ccc(CN(C)C)cc2)=C2/C(=O)Nc3ccc([N+](=O)[O-])cc32)c1 [Example 214, (Z)-3-[1-(4-dimethylaminomethyl-phenylamino)-1-(m-tolyl)-methylidene]-5-nitro-2-indolinone] | 210 °C
COc1cccc(/C(Nc2ccc(CN(C)C)cc2)=C2/C(=O)Nc3ccccc32)c1 [Example 217, (Z)-3-[1-(4-dimethylaminomethyl-phenylamino)-1-(3-methoxyphenyl)-methylidene]-2-indolinone] | 193 to 194 °C
CN(C)Cc1ccc(N/C(=C2\C(=O)Nc3ccccc32)c2ccc([N+](=O)[O-])cc2)cc1 [Example 219, (Z)-3-[1-(4-dimethylaminomethyl-phenylamino)-1-(4-nitrophenyl)-methylidene]-2-indolinone] | 235 °C
